Experimental findings from ChEMBL document CHEMBL1137041, “Novel epicatechin derivatives with antioxidant activity modulate interleukin-1beta release in lipopolysaccharide-stimulated human blood” (Bioorg Med Chem Lett, 2004) are described below.

The assay is described as follows: In vitro antioxidant effect by the inhibition of AAPH-induced lysis of human red blood cells (RBC). In kind it is functional.
As to `NCCS[C@H]1c2c(O)cc(O)cc2O[C@H](c2ccc(O)c(O)c2)[C@@H]1O`, the half-maximal inhibitory concentration (IC50) was found to be 89.4 µM.

As for `N[C@@H](CS[C@H]1c2c(O)cc(O)cc2O[C@H](c2ccc(O)c(O)c2)[C@@H]1O)C(=O)O`, the IC50 is 74.9 µM.

On to `Oc1cc(O)c2c(c1)O[C@H](c1ccc(O)c(O)c1)[C@H](O)C2` [(-)-EPICATECHIN], for which the concentration for half-maximal inhibition (IC50) turned out to be 120 µM.

As usually defined, the IC50 is the concentration that gives 50% inhibition.
